According to PubChem BioAssay (NCI):
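Following 48 hours of exposure in 96-well plates, responses at five concentrations were used to interpolate endpoints linearly. Abbreviation: GI50, concentration required for 50% inhibition of growth. TGI: total growth inhibition.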

These molecules were tested on KM12 colon (assay: growth of human tumour cells (NCI), 48 h).

First: NCCCOc1cc2ccccc2cc1C(=O)NCCCOc1cc2ccccc2cc1C(=O)Nc1ccc(Cl)cc1O
Second: O=C1/C(=C/N2N=C(c3ccc4ccccc4c3)CC2c2ccccc2O)SC(=S)N1c1cccnc1 (configuration not stated)
The GI50 of the first is 1.6-fold lower: 0.288 µM for the first, 0.473 µM for the second.

Compared with `c1ccc2c(c1)c1ccccc1c1ccccc21`, `NC(=O)CNc1ccc([As]=[As]c2ccc(NCC(N)=O)cc2)cc1` (configuration not stated) is lower in GI50: greater than 100 µM for the first, 13.7 µM for the second.

Going from `NCCCOc1cc2ccccc2cc1C(=O)NCCCOc1cc2ccccc2cc1C(=O)Nc1ccc(Cl)cc1O` to `O=C1/C(=C/N2N=C(c3ccc4ccccc4c3)CC2c2ccccc2O)SC(=S)N1c1cccnc1` (configuration not stated), the TGI rises from 0.983 µM to greater than 100 µM.

First: c1ccc2c(c1)c1ccccc1c1ccccc21
Second: Cc1c2c(C(N)=O)nccc2c(C)c2c1c1ccccc1n2Cc1ccccc1
The TGI of the first is higher: greater than 100 µM for the first, 72.6 µM for the second.

Work on `NC(=O)CNc1ccc([As]=[As]c2ccc(NCC(N)=O)cc2)cc1` (configuration not stated) yielded a TGI of 33.2 µM.

These molecules were tested on MALME-3M melanoma (assay: growth of human tumour cells (NCI), 48 h).

First: COc1ccc(-c2nn(-c3cccc(Cl)c3)cc2-c2nc(N)[nH]c(=O)c2C#N)cc1
Second: C=CCn1c(SCC(=O)Nc2ccc(C(=O)/C=C/c3cc(OC)c(OC)c(OC)c3)cc2)nnc1-c1ccc(OC)cc1
The GI50 of the first is 3.1-fold higher: 5.83 µM for the first, 1.89 µM for the second.

First: COc1cc2c3c(n(CCCN(CCO)CCO)c(=O)c2cc1OC)-c1cc2c(cc1C3=O)OCO2
Second: COc1cc2c3c(n(CCCN(C)CCO)c(=O)c2cc1OC)-c1cc2c(cc1C3=O)OCO2
The GI50 of the first is lower: 0.67 µM for the first, greater than 55.7 µM for the second.

First: CNCCn1c(=O)c2cc(OC)c(OC)cc2c2cnc3cc4c(cc3c21)OCO4
Second: COc1cc(C(=O)O[C@H](C(N)=O)[C@]2(C)CO2)c2cccc(C)c2c1
The GI50 of the first is 2.6-fold lower: 0.05 µM for the first, 0.13 µM for the second.

Going from `Cn1cc(S(=O)(=O)N2CCC3=Cc4c(cnn4-c4ccc(F)cc4)C[C@]3(C(=O)c3cc(C(F)(F)F)ccn3)C2)cn1` to `O=C(NC1CCCCC1)c1ccc(Nc2ncnc3c2cnn3-c2ccccc2)cc1`, the GI50 falls from greater than 100 µM to 1.97 µM.

First: NCCCn1c2c(c3ccccc3c1=O)C(=O)c1ccccc1-2
Second: c1ccc2c(c1)c1ccccc1c1ccccc21
The GI50 of the first is lower: 0.156 µM for the first, greater than 100 µM for the second.

Going from `N#CC(C#N)=C1CCCOc2c1ccc1ccccc21` to `O=C1/C(=C/N2N=C(c3ccc4ccccc4c3)CC2c2ccccc2O)SC(=S)N1c1cccnc1` (configuration not stated), the GI50 falls from greater than 100 µM to 5.2 µM.

`C=C1C(O)C2C(=C(C)C13CC3)C(=O)C(C)(C)C2OC` (configuration not stated) and `Cc1sc2c(c1C)C(c1ccc(Cl)cc1)=N[C@@H](CC(=O)Nc1ccc(OCCOCCOCCOCCNc3cccc4c3C(=O)N(C3CCC(=O)NC3=O)C4=O)cc1)c1nnc(C)n1-2` (some centres not stated) cannot be ordered by GI50: greater than 100 µM for the first, greater than 100 µM for the second.

`O=C(Nc1ccc(Cl)cc1)Nc1nccs1` and `NC(=O)CNc1ccc([As]=[As]c2ccc(NCC(N)=O)cc2)cc1` (configuration not stated) are within 1.5-fold of each other in GI50: 3.37 µM for the first, 2.62 µM for the second.

`NCCCOc1cc2ccccc2cc1C(=O)NCCCOc1cc2ccccc2cc1C(=O)Nc1ccc(Cl)cc1O` gave a GI50 of 1.48 µM.

`COc1ccc(-c2nn(-c3cccc(Cl)c3)cc2-c2nc(N)[nH]c(=O)c2C#N)cc1` and `C=CCn1c(SCC(=O)Nc2ccc(C(=O)/C=C/c3cc(OC)c(OC)c(OC)c3)cc2)nnc1-c1ccc(OC)cc1` are within 1.5-fold of each other in TGI: 40.6 µM for the first, 36.8 µM for the second.

First: COC(=O)C(=O)CC(=O)c1cccc(OC)c1
Second: COc1cc(C(=O)O[C@H](C(N)=O)[C@]2(C)CO2)c2cccc(C)c2c1
The TGI of the first is higher: greater than 100 µM for the first, 0.646 µM for the second.

Compared with `COc1cc2c3c(n(CCCN(CCO)CCO)c(=O)c2cc1OC)-c1cc2c(cc1C3=O)OCO2`, `COc1cc2c3c(n(CCCN(C)CCO)c(=O)c2cc1OC)-c1cc2c(cc1C3=O)OCO2` is higher in TGI: 23.4 µM for the first, greater than 100 µM for the second.

Going from `CNCCn1c(=O)c2cc(OC)c(OC)cc2c2cnc3cc4c(cc3c21)OCO4` to `COc1ccc(/C=C/c2cnccn2)cc1OC`, the TGI rises from 5.75 µM to greater than 10 µM.

First: Cn1cc(S(=O)(=O)N2CCC3=Cc4c(cnn4-c4ccc(F)cc4)C[C@]3(C(=O)c3cc(C(F)(F)F)ccn3)C2)cn1
Second: O=C(NC1CCCCC1)c1ccc(Nc2ncnc3c2cnn3-c2ccccc2)cc1
The TGI of the first is higher: greater than 100 µM for the first, 4.94 µM for the second.

First: NCCCn1c2c(c3ccccc3c1=O)C(=O)c1ccccc1-2
Second: c1ccc2c(c1)c1ccccc1c1ccccc21
The TGI of the first is lower: 1.46 µM for the first, greater than 100 µM for the second.

`N#CC(C#N)=C1CCCOc2c1ccc1ccccc21` and `O=C1/C(=C/N2N=C(c3ccc4ccccc4c3)CC2c2ccccc2O)SC(=S)N1c1cccnc1` (configuration not stated) cannot be ordered by TGI: greater than 100 µM for the first, greater than 100 µM for the second.

`C=C1C(O)C2C(=C(C)C13CC3)C(=O)C(C)(C)C2OC` (configuration not stated) and `Cc1sc2c(c1C)C(c1ccc(Cl)cc1)=N[C@@H](CC(=O)Nc1ccc(OCCOCCOCCOCCNc3cccc4c3C(=O)N(C3CCC(=O)NC3=O)C4=O)cc1)c1nnc(C)n1-2` (some centres not stated) cannot be ordered by TGI: greater than 100 µM for the first, greater than 100 µM for the second.

First: O=C(Nc1ccc(Cl)cc1)Nc1nccs1
Second: NC(=O)CNc1ccc([As]=[As]c2ccc(NCC(N)=O)cc2)cc1 (configuration not stated)
The TGI of the first is 5.6-fold higher: 54.1 µM for the first, 9.71 µM for the second.

`NCCCOc1cc2ccccc2cc1C(=O)NCCCOc1cc2ccccc2cc1C(=O)Nc1ccc(Cl)cc1O` showed a TGI of 3.5 µM.

The molecules below were run on MDA-MB-435 (assay: growth of human tumour cells (NCI), 48 h).

Compared with `COc1ccc(-c2nn(-c3cccc(Cl)c3)cc2-c2nc(N)[nH]c(=O)c2C#N)cc1`, `C=CCn1c(SCC(=O)Nc2ccc(C(=O)/C=C/c3cc(OC)c(OC)c(OC)c3)cc2)nnc1-c1ccc(OC)cc1` is 6.6-fold lower in GI50: 2.16 µM for the first, 0.327 µM for the second.

Going from `COc1cc2c3c(n(CCCN(CCO)CCO)c(=O)c2cc1OC)-c1cc2c(cc1C3=O)OCO2` to `COc1cc2c3c(n(CCCN(C)CCO)c(=O)c2cc1OC)-c1cc2c(cc1C3=O)OCO2`, the GI50 rises from less than 0.0369 µM to 16.6 µM.

First: CNCCn1c(=O)c2cc(OC)c(OC)cc2c2cnc3cc4c(cc3c21)OCO4
Second: COc1ccc2c(c1)C(C)Cc1c(ncnc1-n1cnc3ccccc31)N2C (configuration not stated)
The GI50 of the first is 11-fold lower: 0.0189 µM for the first, 0.2 µM for the second.

Going from `Cn1cc(S(=O)(=O)N2CCC3=Cc4c(cnn4-c4ccc(F)cc4)C[C@]3(C(=O)c3cc(C(F)(F)F)ccn3)C2)cn1` to `O=C(NC1CCCCC1)c1ccc(Nc2ncnc3c2cnn3-c2ccccc2)cc1`, the GI50 falls from greater than 100 µM to 67.8 µM.

First: NCCCn1c2c(c3ccccc3c1=O)C(=O)c1ccccc1-2
Second: c1ccc2c(c1)c1ccccc1c1ccccc21
The GI50 of the first is lower: 0.7 µM for the first, greater than 100 µM for the second.

First: N#CC(C#N)=C1CCCOc2c1ccc1ccccc21
Second: O=C1/C(=C/N2N=C(c3ccc4ccccc4c3)CC2c2ccccc2O)SC(=S)N1c1cccnc1 (configuration not stated)
The GI50 of the first is higher: greater than 100 µM for the first, 0.481 µM for the second.

Compared with `C=C1C(O)C2C(=C(C)C13CC3)C(=O)C(C)(C)C2OC` (configuration not stated), `COc1cc(C(=O)O[C@H](C(N)=O)[C@]2(C)CO2)c2cccc(C)c2c1` is lower in GI50: greater than 100 µM for the first, less than 0.0215 µM for the second.

Going from `O=C(Nc1ccc(Cl)cc1)Nc1nccs1` to `NC(=O)CNc1ccc([As]=[As]c2ccc(NCC(N)=O)cc2)cc1` (configuration not stated), the GI50 rises from 0.207 µM to 6.24 µM (30-fold).

First: Cc1sc2c(c1C)C(c1ccc(Cl)cc1)=N[C@@H](CC(=O)Nc1ccc(OCCOCCOCCOCCNc3cccc4c3C(=O)N(C3CCC(=O)NC3=O)C4=O)cc1)c1nnc(C)n1-2 (some centres not stated)
Second: NCCCOc1cc2ccccc2cc1C(=O)NCCCOc1cc2ccccc2cc1C(=O)Nc1ccc(Cl)cc1O
The GI50 of the first is lower: less than 0.0453 µM for the first, 0.899 µM for the second.

Compared with `COc1ccc(-c2nn(-c3cccc(Cl)c3)cc2-c2nc(N)[nH]c(=O)c2C#N)cc1`, `C=CCn1c(SCC(=O)Nc2ccc(C(=O)/C=C/c3cc(OC)c(OC)c(OC)c3)cc2)nnc1-c1ccc(OC)cc1` is 3.4-fold lower in TGI: 5.48 µM for the first, 1.6 µM for the second.

Going from `COC(=O)C(=O)CC(=O)c1cccc(OC)c1` to `COc1cc(C(=O)O[C@H](C(N)=O)[C@]2(C)CO2)c2cccc(C)c2c1`, the TGI falls from greater than 100 µM to 0.126 µM.

First: COc1cc2c3c(n(CCCN(CCO)CCO)c(=O)c2cc1OC)-c1cc2c(cc1C3=O)OCO2
Second: COc1cc2c3c(n(CCCN(C)CCO)c(=O)c2cc1OC)-c1cc2c(cc1C3=O)OCO2
The TGI of the first is lower: 0.842 µM for the first, greater than 100 µM for the second.

First: CNCCn1c(=O)c2cc(OC)c(OC)cc2c2cnc3cc4c(cc3c21)OCO4
Second: COc1ccc(/C=C/c2cnccn2)cc1OC
The TGI of the first is lower: 2.02 µM for the first, greater than 10 µM for the second.

`Cn1cc(S(=O)(=O)N2CCC3=Cc4c(cnn4-c4ccc(F)cc4)C[C@]3(C(=O)c3cc(C(F)(F)F)ccn3)C2)cn1` and `O=C(NC1CCCCC1)c1ccc(Nc2ncnc3c2cnn3-c2ccccc2)cc1` cannot be ordered by TGI: greater than 100 µM for the first, greater than 100 µM for the second.

Going from `COc1ccc2c(c1)C(C)Cc1c(ncnc1-n1cnc3ccccc31)N2C` (configuration not stated) to `Cc1c2c(C(N)=O)nccc2c(C)c2c1c1ccccc1n2Cc1ccccc1`, the TGI rises from 0.605 µM to greater than 100 µM.

Going from `NCCCn1c2c(c3ccccc3c1=O)C(=O)c1ccccc1-2` to `c1ccc2c(c1)c1ccccc1c1ccccc21`, the TGI rises from 3.07 µM to greater than 100 µM.

First: N#CC(C#N)=C1CCCOc2c1ccc1ccccc21
Second: O=C1/C(=C/N2N=C(c3ccc4ccccc4c3)CC2c2ccccc2O)SC(=S)N1c1cccnc1 (configuration not stated)
The TGI of the first is higher: greater than 100 µM for the first, 3.17 µM for the second.

`C=C1C(O)C2C(=C(C)C13CC3)C(=O)C(C)(C)C2OC` (configuration not stated) and `Cc1sc2c(c1C)C(c1ccc(Cl)cc1)=N[C@@H](CC(=O)Nc1ccc(OCCOCCOCCOCCNc3cccc4c3C(=O)N(C3CCC(=O)NC3=O)C4=O)cc1)c1nnc(C)n1-2` (some centres not stated) cannot be ordered by TGI: greater than 100 µM for the first, greater than 100 µM for the second.

First: O=C(Nc1ccc(Cl)cc1)Nc1nccs1
Second: NC(=O)CNc1ccc([As]=[As]c2ccc(NCC(N)=O)cc2)cc1 (configuration not stated)
The TGI of the first is 97-fold lower: 0.585 µM for the first, 56.6 µM for the second.

Molecule `NCCCOc1cc2ccccc2cc1C(=O)NCCCOc1cc2ccccc2cc1C(=O)Nc1ccc(Cl)cc1O` has a TGI of 2.6 µM.

What follows are molecules tested on SF-295 CNS (assay: growth of human tumour cells (NCI), 48 h).

Molecule `COc1ccc(-c2nn(-c3cccc(Cl)c3)cc2-c2nc(N)[nH]c(=O)c2C#N)cc1` has a GI50 of 2.36 µM.

Going from `COc1ccc(-c2nn(-c3cccc(Cl)c3)cc2-c2nc(N)[nH]c(=O)c2C#N)cc1` to `COC(=O)C(=O)CC(=O)c1cccc(OC)c1`, the TGI rises from 9.23 µM to greater than 100 µM.
